Entries after “also recorded” stand apart in the source; their conditions may differ. Ends that are not written are not given here.
Experiments:
Assay type in all cases: cell-based, mouse
[1] = system: TLR4 signaling (LPS-induced IL-1β, MIP-1β, IFN-β, RANTES mRNA); assay: LPS-induced gene expression in primary murine macrophages, real-time PCR; conditions: for effect on induction of IL1-β and IFN-β mRNA (cytokine induction) by LPS: 30 min preincubation with peptide; for inhibitory effect on LPS-induced expression of IL-1β, MIP-1β, IFN-β and RANTES mRNA: 40 μM BP, 1 h preincubation, 10 ng/ml LPS, mRNA 1 h after LPS
Description: FIG. 1. Effect of blocking peptides on the cytokine induction by LPS. Thioglycollate-elicited primary murine macrophages were preincubated in the presence of 40 μMof BP for one hour before stimulation with 10 ng/ml of LPS. (A) Quantitative real-time PCR analysis of gene expression. (B) Secretion of IL-1β and IL-6. Concentration of the cytokines was measured after overnight incubation of the cells in the presence of LPS and the peptides. (C) Sensitivity of the LPS-stimulated expression of IFN-β and IL-1β mRNA to varying concentrations of TRAM and MyD88 BP. Total mRNA was isolated 1 hour after LPS stimulation (A and C). *p<0.05; **p<0.01.
FIG. 6. Effect of mutant TRAM BB loop peptides on LPS-induced activation of IL1-β and IFN-β mRNA. Details of the experiments are as described in the legend for FIG. 1, except for the cells were preincubated with peptides only for 30 minutes.
C3H/OuJ mice were purchased from the Jackson Laboratory (Bar Harbor, Me.). Thioglycollate-elicited peritoneal macrophages were harvested and cultured in the presence of E. coli K235 LPS or Pam3Cys as described previously (Salkowski et al., 1999, J. Immunol. 164, 1529).
(§1) Total cellular RNA was extracted from macrophage cultures as described elsewhere and reversed transcribed using AMV Reverse Transcriptase (Promega, Madison, Wis.) and poly-T priming as recommended by the manufacturer. The resulting cDNA was quantified by real time PCR using SYBR Green PCR Master Mix (Applied Biosystems) and ABI Prism 7900HT cycler. Primers for detection of IL-1β, IFN-β, MIP-1β, […]RANTES, and HPRT mRNAs were designed using the Primer Express 2.0 program (Applied Biosystems). Relative gene expression was calculated using ΔCt method with HPRT as a housekeeping gene (1.8̂(CtHPRT−CtGene)) Statistical analysis was performed by one way ANOVA with repeated measures, followed by Dunnett's multiple comparison post hoc test with p≦0.05 chosen as the level of significance.
Mice with targeted mutations in MyD88 (Kawai et al., 2001, supra; Toshchakov et al., 2002, supra) or TIRAP (Yamamoto et al., 2002, Nature 420, 324) retain the capacity to signal through the MyD88-independent pathway. […] Therefore, the first question we sought to address experimentally is whether interactions of the BB-loops of the TIR domains of these adapters affect protein interactions leading to gene expression. To this end, we designed cell permeable peptides whose sequences correspond to the BB-loops of each adapter molecule and measured the ability of each BP to interfere with the induction of immediate response genes induced via MyD88-dependent and independent pathways. […] All BB-loop-containing peptides exerted an inhibitory effect on LPS-induced expression of MyD88-dependent IL-1β and […], as well as MyD88-independent IFN-β and RANTES mRNA, as measured by real-time PCR (FIG. 1A).

[2] = system: TLR4 signaling (LPS-induced phosphorylation of ERK, JNK, p38); assay: LPS-stimulated activation of MAPKs (pERK, pJNK, pP38), Western blot; conditions: for effect on LPS-induced activation of p38 / inhibition of LPS-induced activation of ERK: 40 μM BP; for inhibition of LPS-induced activation of ERK / effect on LPS-induced activation (phosphorylation) of MAPKs (ERK, JNK) / effect on LPS-induced activation of ERK, cells preincubated with peptides only for 30 minutes: LPS 10 ng/ml; for inhibition of phosphorylation of ERK whether or not 100-fold excess LPS was used: peptide increased from 10 μM to 40 μM, LPS 10 ng/nl or 1 μg/ml; for effect on LPS-induced activation (phosphorylation) of MAPKs (ERK, JNK): 40 μM, 1 h preincubation; for effect on LPS-induced activation of ERK, cells preincubated with peptides only for 30 minutes: FIG. 5 and 7, 30 min preincubation
Description: (§2) FIG. 2. Effect of blocking peptides on the LPS-stimulated activation of MAPKs and Tyr701 STAT-1. Ten μg of total protein was loaded per lane. A representative blot of three separate experiments is shown. Other details are given in the Materials and Methods section and legend for FIG. 1.
(§3) FIG. 4. Comparative effect of BPs on TLR2-vs. TLR4-mediated activation of MAPKs (A) and IL-1β mRNA expression (B). For Western blot analysis, 4.5 x10^6 primary macrophages were preincubated without or with 40 μM BP and stimulated for 30 min with LPS (10 ng/ml) or Pam3Cys (P3C; 150 ng/ml). The results shown are a representative blot of three separate experiments. Experimental details for FIG. 4B are the same as reported in the legend to FIG. 1A.
FIG. 5. Effect of mutated TRAM BB loop peptides on LPS-induced activation of ERK. Details of the experiment are as in legend for FIG. 4, except for the cells were preincubated with peptides only for 30 minutes.
(§4) SDS-PAGE and Western blot analysis were performed as described previously (Medvedev et al., 2001, J. Immunol. 167, 2257) with minor modifications. Antibodies for detection of activated MAPKs (pERK, pJNK and pP38) were purchased from Cell Signaling Technology (Beverly, Mass.). IRF-1 was detected using a rabbit polyclonal antibody from Santa-Cruz (Santa Cruz, Calif.). Antibody for detection of tyrosine-701 phosphorylated STAT1 was purchased from Zymed Laboratories (San Francisco, Calif.).
Using antibodies specific for the phosphorylated (activated) forms of JNK, ERK, and p38, we next sought to examine the effect of BB-loop-containing inhibitory peptides on LPS-stimulated activation of MAPKs. LPS induces quick and transient activation of MAPKs in primary macrophages (FIG. 2A) that was not affected by the addition of CP. […] The TIRAP BP was the weakest BP; all MAPKs were activated in the presence of it, although to a lesser extent when compared to CP.

[3] = system: TLR2 signaling (Pam3Cys-induced phosphorylation of ERK, JNK, p38); assay: Pam3Cys-induced activation of MAPKs, Western blot; conditions: for effect on P3C-induced activation of p38 / effect on P3C-induced activation (phosphorylation) of ERK: 40 μM; for effect on P3C-induced activation (phosphorylation) of ERK: P3C 150 ng/ml
Description: as §3, §4
Apart from the use of a CP, we sought to analyze further the specificity of the inhibitory effects of BB-loop peptides on TLR signaling. Therefore, we also tested the effect of the peptides on signal transduction elicited from TLR2.

[4] = system: TLR2 signaling (Pam3Cys-induced IL-1β mRNA); assay: Pam3Cys-induced cytokine mRNA expression, real-time PCR
Description: as §3, §1
Similar to their effect on activation of MAPKs, BPs were much weaker inhibitors with respect to Pam3Cys- vs. LPS-induced expression of IL-1β mRNA.

[5] = system: TLR4 signaling (LPS-induced STAT-1 phosphorylation); assay: LPS-induced phosphorylation of STAT-1, Western blot; conditions: 40 μM BP
Description: as §2, §4

[6] = system: TLR4 signaling (IRF-3 dimerization); assay: LPS-induced dimerization of IRF-3, native PAGE; conditions: 100 ng/ml LPS, 1.5 hr
Description: (§5) FIG. 3. Effect of blocking peptides on activation of IRF-3 and IRF-1. […] Primary mouse macrophages were stimulated with 100 ng/ml of LPS. Seventeen μg of total protein was loaded per lane of the native gel. Other details are as described in the legend for FIG. 1.
Native PAGE for detection of IRF-3 activation was performed with minor modifications (Iwamura et al., 2001, Genes Cells 6, 375). One×10^7 thioglycollate-elicited cells were plated into a 6 cm dish and washed with PBS to remove non-adherent cells. Primary macrophages were stimulated with 100 ng/ml of LPS for 1.5 hr and lysed in buffer containing 50 mM TRIS-HCl pH 7.5, 150 mM NaCl, 1 mM EDTA, 1% NP-40, 1 mM sodium orthovanadate and 1× Complete protease inhibitor cocktail (Roche, Mannheim, Germany). Lysates were mixed with native lysis buffer (Bio-Rad, Hercules, Calif.) supplemented with 1% deoxycholate. Fifteen to 20 μg protein per lane was electrophoresed on a non-reducing gel and immunoblotted. IRF-3 dimers and monomers were detected using rabbit anti-IRF-3 antibody (Zymed Laboratories) by Western analysis.
Interferon Regulatory Factors (IRFs) were first identified as important transcriptional mediators of the antiviral immune response (reviewed in Taniguchi et al., 2001, Annu. Rev. Immunol. 19, 623). Later, it was recognized that this family of transcription factors plays an essential role in signal transduction mediated by different TLRs. IRF-1 is regulated transcriptionally by signaling from different TLRs, as well as by cytokines induced by TLR engagement (e.g., IL-1, TNF, and IFN-β) (Fujita et al., 1989, Proc. Natl. Acad. Sci. USA 86, 9936). In contrast, IRF-3 is constitutively expressed in many cell types (Au et al., 1995, Proc. Natl. Acad. Sci. USA 92, 11675). Upon stimulation through TLR4 or TLR3, IRF-3 is phosphorylated at multiple sites in its C-terminus, and this modification enables it to dimerize and translocate to the nucleus where it targets IRF-3-responsive genes (Kawai et al., 2001, supra; Lin et al., 1999, Mol. Cell. Biol. 19, 2465).

[7] = system: TLR4 signaling (IRF-1 protein); assay: LPS-induced upregulation of IRF-1 protein, SDS-PAGE/Western; conditions: 100 ng/ml LPS, 1.5 h
Description: as §5, §4
Importantly, MyD88 knockout macrophages are capable of inducing IRF-1 mRNA (Yamamoto et al., 2003, supra).

[8] = listed as Antennapedia DD loop peptide

| Sequence | effect on induction of IL1-β and IFN-β mRNA (cytokine induction) by LPS [1] | inhibition of phosphorylation of ERK whether or not 100-fold excess LPS was used [2] | effect on P3C-induced cytokine induction [4] | inhibitory effect on LPS-induced expression of IL-1β, MIP-1β, IFN-β and RANTES mRNA [1] | effect on LPS-induced activation (phosphorylation) of MAPKs (ERK, JNK) [2] | inhibition of LPS-induced Tyr701 phosphorylation of STAT-1 [5] | inhibition of LPS-induced dimerization of IRF-3 [6] | effect on LPS-induced upregulation of IRF-1 protein [7] | also measured |
| --- | --- | --- | --- | --- | --- | --- | --- | --- | --- |
| RQIKIWFQNRRMKWKKLHYRDFIPGVAIAA [TLR4-BP] | inhibitory | effectively inhibited | inhibitory |  |  |  |  |  | effect on LPS-induced activation of p38 [2]: did not inhibit; inhibition of LPS-induced activation of ERK ([2]; listed as TLR4 BB peptide): potent inhibitors; also recorded: inhibit; effect on P3C-induced activation of p38 [3]: did not inhibit; effect on P3C-induced activation (phosphorylation) of ERK ([3]; listed as TLR4 BB peptide): to a lesser extend; also recorded: to some extent |
| RQIKIWFQNRRMKWKKLHKRDFVPGKWIID [TLR2-BP] | inhibitory | effectively inhibited | inhibitory |  |  |  |  |  | effect on LPS-induced activation of p38 [2]: did not inhibit; inhibition of LPS-induced activation of ERK ([2]; listed as TLR2 BB peptide): potent inhibitors; also recorded: inhibit; effect on P3C-induced activation of p38 [3]: did not inhibit; effect on P3C-induced activation (phosphorylation) of ERK ([3]; listed as TLR2 BB peptide): diminished and delayed; also recorded: to some extent |
| RQIKIWFQNRRMKWKKIVFAEMPCGRLHLQ [TRAM-BP] |  | effectively inhibited |  | strongest | strongly blocked | strongly inhibited | significantly inhibited | strongest inhibitors |  |
| RQIKIWFQNRRMKWKKLQLRDAAPGGAIVS (TIRAP blocking peptide) [TIRAP-BP] |  |  |  | consistently weakest | weakest BP | did not completely block | inhibition was not as complete | weakest |  |
| RQIKIWFONRRMKWKKFCEEFQVPGRGELH (RQIKIWFQNRRMKWKKFCEEFQVPGRGELH; TRIF blocking peptide) [TRIF-BP] |  |  |  |  | strongly inhibited | strongly inhibited | significantly inhibited | intermediate efficacy | inhibition of LPS-induced activation of ERK [2]: incomplete |
| KYKAMKKDFPSILR [MyD88 DD loop peptide] | not inhibitory |  | not inhibitory |  |  |  |  |  | effect on LPS-induced activation of ERK, cells preincubated with peptides only for 30 minutes [2]: not inhibitory; effect on LPS-induced activation of ERK, cells preincubated with peptides only for 30 minutes [2, 8]: does not inhibit; effect on P3C-induced activation (phosphorylation) of ERK [3]: not inhibitory; effect on P3C-induced activation (phosphorylation) of ERK [3, 8]: does not inhibit |
| RQIKIWFQNRRMKWKKSLHGRGDPMEAFII (Control peptide - BLAST generated) [reference compound] |  |  |  | not significantly affected | not affected |  |  | strong upregulation | effect on Pam3Cys-induced expression of IL-1β mRNA ([4]; 40 μM, Pam3Cys): not significantly affected |
| RQIKIWFQNRRMKWKKLHERNFVPGKSIVE (TLR1/6 blocking peptide) [TLR1/6-BP] |  |  |  |  | affected neither |  |  |  | inhibition of Pam3Cys-induced phosphorylation of MAPKs ([3]; 40 μM BP, Pam3Cys 150 ng/ml, 30 min): affected neither |
| IVFAAMPCGRLHLQ [E/A mutant] | did not affect considerably inhibitory capacity |  |  |  |  |  |  |  | effect on LPS-induced activation of ERK, cells preincubated with peptides only for 30 minutes [2]: did not affect considerably inhibitory capacity |

From US20100069297A1, “Selective Inhibition of TLR4 Signaling” (priority 2005, published 2010)
